Key:
[1] = system: sialidase (EC 3.2.1.18) of B. breve ATCC 15700; assay: Glycosyl hydrolase assay, sialidase in cell-free extract; type: cell-based; conditions: cells grown with 1% (w/v) of the substance as sole carbon source
Experimental: (§1) Assayed cells were incubated anaerobically at 37° C. on semi-synthetic MRS medium (Barrangou et al., Proceedings of the National Academy of Sciences of the United States of America (2003) 100: 8957-8962), with 1% (w/v) sterile filtered lactose or HMO as the sole carbon source. Early stationary phase cells were harvested and 200 mg of 0.1 mm diameter glass beads (BioSpec Products, Bartlesville, Okla.) were added to the suspensions which were subjected to two cycles of 45 s at power 6.0 m s^−1 on a FastPrep FP120 cell disruptor (Qbiogene, Morgan Irvine, Calif.). The beads and cell debris were removed by centrifugation. Cell-free extracts were collected and kept temporarily on ice until the start of the enzyme assays. Protein concentrations were determined according to the Bradford method using bovine serum albumin as the standard (Bradford, M. M., Analytical Biochemistry (1976) 72, (1-2), 248-254). Activity of α-L-fucosidase (EC 3.2.1.51) and sialidase (EC 3.2.1.18) were assayed with the fluorogenic substrates, 4-methylumbelliferyl α-L-fucopyranoside and 2′-(4-methylumbelliferyl) α-D-N-acetylneuraminic acid respectively. Fucosidase activity was assayed with a fluorogenic substrate concentration of 1 mM in 0.2 M phosphate-citrate buffer (pH 5.2), while the sialidase assay employed 0.5 mM of substrate mixed in equal volume with 50 μl 0.25 M sodium acetate-acetic acid buffer (pH 4.3). The reaction mixture containing 100 μl of cell-free extract and 100 μL substrate solution were incubated for 1 hr at 37° C. with the reaction stopped with 1.3 mL of 0.17 M glycine-carbonate buffer, pH 9.8. The fluorescence of enzymatically liberated 4-methylumbelliferone was determined in a Bio-Rad VersaFluor fluorometer (Eureka, Calif.) by excitation at 360 nm and emission measured at 460 nm. Serially diluted 4-methylumbelliferone was used to calibrate relative fluorescence units with substrate concentration. The specific activity of the glycosyl hydrolase was expressed as nanomoles of hydrolyzed substrate per milligram of protein per hour. Assays were performed in duplicates and the standard error was reported.

[2] = system: sialidase (EC 3.2.1.18) of B. infantis ATCC 15697; assay: as above; type: cell-based
Experimental: as §1

[3] = system: sialidase (EC 3.2.1.18) of B. longum DJO10A; assay: as above; type: cell-based; conditions: cells grown with 1% (w/v) of the substance as sole carbon source
Experimental: as §1

[4] = system: B. longum bv. longum DJO10A; assay: FTICR-MS HMO consumption glycoprofiling of bacterial fermentation; type: cell-based, Bifidobacterium longum bv. longum; conditions: 45 hrs
Text: (§2) Bifidobacterium longum bv. infantis ATCC 15697 and B. breve ATCC 15700 were obtained from the American Type Culture Collection (Manassas, Va.), B. longum bv. longum DJO10A was from D. O'Sullivan, University of Minnesota. Cultures were initially propagated in deMan, Rogosa, Sharpe broth (Becton Dickinson, Sparks, Md.) then grown twice on a semi-synthetic MRS medium, devoid of a carbohydrate source (Barrangou et al., Proceedings of the National Academy of Sciences of the United States of America (2003) 100, (15), 8957-8962). This medium was supplemented with 2.0% (w/v) sterile filtered (Millex-GV, 0.22 μm, Millipore, Billerica, Mass.) HMO as the only carbohydrate source. […] Cell growth was measured by assessing optical density at 600 nm with a ND-1000 Spectrophotometer (NanoDrop Technologies, Wilmington, Del.). […]
(§3) All mass spectra were acquired on a HiResESI QFT-hybrid Fourier transform ion cyclotron resonance mass spectrometer with a 9.4 Tesla shielded superconducting magnet (IonSpec Corp., Irvine, Calif.). […] Ion excitation was performed by arbitrary waveform with amplitude of 125.0 V (base-to-peak) and detected by direct broadband mode at a rate of 1 MHz and 512K data points. Each spectrum was recorded with one acquisition scan in the positive ion mode.
(§4) The D/H ratios were calculated using Formula 1 adapted from Xie et al. (Xie et al., Analytical Chemistry (2004) 76, (17), 5186-5197). […]

B. breve ATCC 15700 = assay: as above; type: cell-based, Bifidobacterium breve; conditions: 45 hrs
Text: as §2, §3, §4

[5] = media supplemented with 2.0% (w/v) HMO

OC[C@H]1O[C@@H](O[C@H]2[C@H](O)[C@@H](O)C(O)O[C@@H]2CO)[C@H](O)[C@@H](O)[C@H]1O (stereo partly drawn) [lactose]
Sialidase [1]: 0.32 ± 0.03 nmol/min/mg protein
Sialidase ([2]; cells grown with 1% (w/v) of the substance as sole carbon source): 10.8 ± 1.0 nmol/min/mg protein
higher sialidase activity of B. longum bv. infantis compared to B. breve ([2]; grown on lactose): 33.7 fold
higher sialidase activity of B. longum bv. infantis compared to B. longum ([2]; grown on lactose): 16.6 fold
Sialidase [3]: 0.65 ± 0.03 nmol/min/mg protein

CC(=O)N[C@H]1[C@H](O[C@H]2[C@@H](O)[C@@H](CO)O[C@@H](O[C@H]3[C@H](O)[C@@H](O)C(O)O[C@@H]3CO)[C@@H]2O)O[C@H](CO)[C@@H](O)[C@@H]1O[C@@H]1O[C@H](CO)[C@H](O)[C@H](O)[C@H]1O (stereo partly drawn) [lacto-N-tetraose]
consumption of the overall detectable HMO pool represented by LNT metabolism ([4]; 2.0% (w/v) HMO): 7.3%
consumption of the HMO species [4, 5]: 35.2%
consumption of the overall detectable HMO pool represented by LNT metabolism (B. breve ATCC 15700; 2.0% (w/v) HMO): 5.1%
consumption of the HMO species (B. breve ATCC 15700; [5]): 24.4%
